Test results taken from ChEMBL document CHEMBL1909046, “DrugMatrix in vitro pharmacology data”.

Tests used:
Vasopressin V1a receptor = Vasopressin V1a receptor (Homo sapiens, UniProt P37288); format: cell membranes, Membrane; settings: hek293; note: in other assays of this panel Not Active means under 50% inhibition at 10 µM
[1] = target: C-C chemokine receptor type 2 (Homo sapiens, UniProt P41597); format: cell membranes, Membrane; settings: cho-k1; note: in other assays of this panel Not Active means under 50% inhibition at 10 µM
Chain of C-C chemokine receptor type 2 (P41597 whole entry): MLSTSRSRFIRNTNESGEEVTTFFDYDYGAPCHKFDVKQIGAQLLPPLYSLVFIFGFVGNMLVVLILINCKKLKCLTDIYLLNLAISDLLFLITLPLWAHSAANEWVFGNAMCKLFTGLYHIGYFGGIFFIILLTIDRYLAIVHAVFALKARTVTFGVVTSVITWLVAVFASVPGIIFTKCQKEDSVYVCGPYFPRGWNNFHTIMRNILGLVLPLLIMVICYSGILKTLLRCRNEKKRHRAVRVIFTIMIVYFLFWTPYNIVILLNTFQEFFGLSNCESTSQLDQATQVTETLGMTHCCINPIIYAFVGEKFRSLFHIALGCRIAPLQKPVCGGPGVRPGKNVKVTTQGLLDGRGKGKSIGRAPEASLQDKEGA

[2] = target: T1, C-C chemokine receptor type 4 (Homo sapiens, UniProt P51679); format: cell membranes, Membrane; settings: chem-1; note: in other assays of this panel Not Active means under 50% inhibition at 10 µM
T1 sequence (P51679 whole entry): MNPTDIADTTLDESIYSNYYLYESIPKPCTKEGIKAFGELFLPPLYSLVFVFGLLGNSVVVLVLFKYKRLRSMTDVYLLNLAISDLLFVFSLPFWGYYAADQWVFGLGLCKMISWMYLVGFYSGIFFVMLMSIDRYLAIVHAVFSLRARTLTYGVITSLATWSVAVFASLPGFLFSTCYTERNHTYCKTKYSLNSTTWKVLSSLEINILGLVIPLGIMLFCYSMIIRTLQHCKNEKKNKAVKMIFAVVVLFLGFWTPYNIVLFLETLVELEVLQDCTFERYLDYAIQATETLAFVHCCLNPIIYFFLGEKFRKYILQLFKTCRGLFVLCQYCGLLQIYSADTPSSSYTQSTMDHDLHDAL

[3] = target: T2, Neuropeptide Y receptor type 2 (Homo sapiens, UniProt P49146); format: cell membranes, KAN-TS, Membrane; settings: kan-ts; note: in other assays of this panel Not Active means under 50% inhibition at 10 µM
T2 sequence (P49146 whole entry): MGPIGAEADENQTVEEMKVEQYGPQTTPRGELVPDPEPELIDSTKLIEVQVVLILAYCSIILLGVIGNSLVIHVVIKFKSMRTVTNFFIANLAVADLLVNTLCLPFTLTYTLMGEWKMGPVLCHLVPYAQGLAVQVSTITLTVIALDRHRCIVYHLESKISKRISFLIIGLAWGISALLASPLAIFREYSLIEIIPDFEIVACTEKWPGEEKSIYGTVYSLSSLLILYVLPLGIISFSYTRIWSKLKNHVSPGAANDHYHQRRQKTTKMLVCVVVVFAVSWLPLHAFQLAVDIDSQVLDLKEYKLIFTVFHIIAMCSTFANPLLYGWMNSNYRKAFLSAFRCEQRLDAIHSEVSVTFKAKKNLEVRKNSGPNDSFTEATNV

[4] = target: Platelet-activating factor receptor (Homo sapiens, UniProt P25105); format: tissue-based; note: in other assays of this panel Not Active means under 50% inhibition at 10 µM
Chain of Platelet-activating factor receptor (P25105 whole entry): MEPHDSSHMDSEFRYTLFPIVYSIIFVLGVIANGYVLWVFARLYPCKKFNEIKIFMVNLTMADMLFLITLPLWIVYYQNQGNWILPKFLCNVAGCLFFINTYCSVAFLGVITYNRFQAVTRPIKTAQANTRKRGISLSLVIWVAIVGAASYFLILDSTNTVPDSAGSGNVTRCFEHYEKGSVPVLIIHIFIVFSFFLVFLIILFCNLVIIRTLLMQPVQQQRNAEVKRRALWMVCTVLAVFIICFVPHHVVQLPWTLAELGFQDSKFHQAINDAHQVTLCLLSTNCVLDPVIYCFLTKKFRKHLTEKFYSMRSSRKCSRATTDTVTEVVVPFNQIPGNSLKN

[5] = target: Mitogen-activated protein kinase 1 (Homo sapiens, UniProt P28482); test: DRUGMATRIX: Protein Serine/Threonine Kinase, ERK2 enzyme inhibition (substrate: Myelin Basic Protein); set-up: species or system Escherichia coli; settings: Not Active = under 50% inhibition at 10 µM
Chain of Mitogen-activated protein kinase 1 (P28482 whole entry): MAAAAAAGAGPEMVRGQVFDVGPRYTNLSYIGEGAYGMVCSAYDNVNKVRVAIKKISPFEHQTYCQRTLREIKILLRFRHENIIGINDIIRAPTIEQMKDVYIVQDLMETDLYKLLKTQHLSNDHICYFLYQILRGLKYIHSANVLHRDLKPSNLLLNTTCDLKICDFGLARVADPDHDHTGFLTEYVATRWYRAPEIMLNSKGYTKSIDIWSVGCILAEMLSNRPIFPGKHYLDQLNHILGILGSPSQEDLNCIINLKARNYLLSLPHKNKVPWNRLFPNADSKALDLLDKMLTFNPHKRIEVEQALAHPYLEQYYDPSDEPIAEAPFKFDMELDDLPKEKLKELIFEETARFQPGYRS

Adenosine receptor A1 = target: T3, Adenosine receptor A1 (Homo sapiens, UniProt P30542); format: cell membranes, CHO, Membrane; settings: cho
T3 sequence (P30542 whole entry): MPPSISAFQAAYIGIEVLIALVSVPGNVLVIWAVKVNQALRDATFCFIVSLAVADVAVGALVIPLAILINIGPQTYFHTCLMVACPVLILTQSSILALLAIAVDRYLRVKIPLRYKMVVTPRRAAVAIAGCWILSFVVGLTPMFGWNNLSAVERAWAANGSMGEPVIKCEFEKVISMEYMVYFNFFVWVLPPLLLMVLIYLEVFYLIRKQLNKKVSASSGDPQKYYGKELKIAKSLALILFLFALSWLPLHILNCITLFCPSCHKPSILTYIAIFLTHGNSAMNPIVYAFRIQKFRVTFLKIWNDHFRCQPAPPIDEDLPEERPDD

Chain of Vasopressin V1a receptor (P37288 whole entry): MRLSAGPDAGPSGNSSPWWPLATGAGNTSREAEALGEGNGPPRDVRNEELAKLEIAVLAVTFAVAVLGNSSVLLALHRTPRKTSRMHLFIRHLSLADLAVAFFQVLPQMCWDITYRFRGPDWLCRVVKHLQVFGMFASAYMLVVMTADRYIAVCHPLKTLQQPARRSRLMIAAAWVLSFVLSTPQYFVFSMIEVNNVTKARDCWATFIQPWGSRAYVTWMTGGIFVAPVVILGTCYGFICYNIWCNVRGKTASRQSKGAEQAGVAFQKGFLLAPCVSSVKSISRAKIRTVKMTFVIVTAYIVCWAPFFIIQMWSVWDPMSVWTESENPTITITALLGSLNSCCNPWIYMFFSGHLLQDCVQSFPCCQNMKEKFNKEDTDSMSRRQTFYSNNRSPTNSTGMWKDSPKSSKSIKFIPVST

| Compound | IC50 (Vasopressin V1a receptor) | Ki (Vasopressin V1a receptor) | IC50 [1] | Ki [1] | IC50 [2] | Ki [2] | IC50 [3] | Ki [3] | IC50 [4] | Ki [4] | IC50 [5] | Ki [5] | IC50 (Adenosine receptor A1) | Ki (Adenosine receptor A1) | IC50 ([5]; read-out: IC50) [nM] |
| --- | --- | --- | --- | --- | --- | --- | --- | --- | --- | --- | --- | --- | --- | --- | --- |
| NYSTATIN | Not Active | Not Active | Not Active | Not Active | Not Active | Not Active | Not Active | Not Active | Not Active | Not Active | Not Active | Not Active | Not Active | Not Active | – |
| COc1cc(N)c(Cl)cc1C(=O)NC1CCN(CCCOc2ccc(F)cc2)CC1OC (stereo unspecified) [CISAPRIDE] | Not Active | – | Not Active | – | Not Active | – | Not Active | – | Not Active | – | Not Active | – | Not Active | – | – |
| C[C@@H]1C[C@H]2[C@@H]3CCC4=CC(=O)C=C[C@]4(C)[C@@]3(F)[C@@H](O)C[C@]2(C)[C@@]1(O)C(=O)CO [DEXAMETHASONE] | Not Active | – | Not Active | – | Not Active | – | Not Active | – | Not Active | – | Not Active | – | Not Active | – | – |
| O=C(c1ccccc1C(F)(F)F)N1CCC(Cc2ccccc2)CC1 | Not Active | – | Not Active | – | Not Active | – | Not Active | – | Not Active | – | Not Active | – | Not Active | – | – |
| Brc1c(NC2=NCCN2)ccc2nccnc12 [BRIMONIDINE] | Not Active | – | Not Active | – | Not Active | – | Not Active | – | Not Active | – | Not Active | – | Not Active | – | – |
| CC1(C)S[C@@H]2[C@H](NC(=O)[C@H](N)c3ccccc3)C(=O)N2[C@H]1C(=O)O [AMPICILLIN] | Not Active | – | Not Active | – | Not Active | – | Not Active | – | Not Active | – | Not Active | – | Not Active | – | – |
| C[n+]1ccccc1/C=N/O.[Cl-] [PRALIDOXIME CHLORIDE] | Not Active | – | Not Active | – | Not Active | – | Not Active | – | Not Active | – | Not Active | – | Not Active | – | – |
| COc1cc2nc(N3CCN(C(=O)c4ccco4)CC3)nc(N)c2cc1OC [PRAZOSIN] | Not Active | – | Not Active | – | Not Active | – | Not Active | – | Not Active | – | Not Active | – | Not Active | – | – |
| Cc1c(OCC(F)(F)F)ccnc1C[S+]([O-])c1nc2ccccc2[nH]1 (stereo unspecified) [LANSOPRAZOLE] | Not Active | – | Not Active | – | Not Active | – | Not Active | – | Not Active | – | Not Active | – | Not Active | – | – |
| CN1[C@@H]2CC[C@H]1C[C@@H](OC(=O)C(CO)c1ccccc1)C2 (stereo partly specified) [ATROPINE] | Not Active | – | Not Active | – | Not Active | – | Not Active | – | Not Active | – | Not Active | – | Not Active | – | – |
| COc1ccc(C2C(=O)c3ccccc3C2=O)cc1 [ANISINDIONE] | Not Active | – | Not Active | – | Not Active | – | Not Active | – | Not Active | – | Not Active | – | Not Active | – | – |
| COC(=O)Nc1nc2ccc([S+]([O-])c3ccccc3)cc2[nH]1 (stereo unspecified) [OXFENDAZOLE] | Not Active | – | Not Active | – | Not Active | – | Not Active | – | Not Active | – | Not Active | – | Not Active | – | – |
| CC(C(=O)O)c1ccc2oc(-c3ccc(Cl)cc3)nc2c1 (stereo unspecified) [BENOXAPROFEN] | Not Active | – | Not Active | – | Not Active | – | Not Active | – | Not Active | – | Not Active | – | Not Active | – | – |
| Cc1cc2c(OCC(CNC(C)(C)C)OC(=O)c3ccccc3)cccc2[nH]1 (stereo unspecified) [BOPINDOLOL] | Not Active | – | Not Active | – | Not Active | – | Not Active | – | Not Active | – | Not Active | – | Not Active | – | – |
| Nc1ccn([C@@H]2O[C@H](CO)[C@@H](O)C2(F)F)c(=O)n1 [GEMCITABINE] | Not Active | – | Not Active | – | Not Active | – | Not Active | – | Not Active | – | Not Active | – | Not Active | – | – |
| COc1ccc2[nH]cc(CCNC(C)=O)c2c1 [MELATONIN] | Not Active | – | Not Active | – | Not Active | – | Not Active | – | Not Active | – | Not Active | – | Not Active | – | – |
| GADOPENTETATE DIMEGLUMINE | Not Active | Not Active | Not Active | Not Active | Not Active | Not Active | Not Active | Not Active | Not Active | Not Active | Not Active | Not Active | Not Active | Not Active | – |
| C#CC1(O)CC[C@H]2[C@@H]3CCC4=CC(=O)CC[C@@H]4[C@H]3CC[C@@]21CC (stereo partly specified) [NORGESTREL] | Not Active | – | Not Active | – | Not Active | – | Not Active | – | Not Active | – | Not Active | – | Not Active | – | – |
| C[n+]1ccc(-c2cc[n+](C)cc2)cc1.[Cl-].[Cl-] [PARAQUAT DICHLORIDE] | Not Active | – | Not Active | – | Not Active | – | Not Active | – | Not Active | – | Not Active | – | Not Active | – | – |
| C[C@@H]1CC[C@@]2(OC1)O[C@H]1[C@@H](O)[C@H]3[C@@H]4CC[C@H]5C[C@@H](O[C@@H]6O[C@H](CO)[C@H](O[C@@H]7O[C@H](CO)C(O)[C@H](O[C@@H]8OC[C@@H](O)[C@H](O)[C@H]8O)[C@H]7O[C@@H]7O[C@H](CO)[C@H](O)[C@H](O[C@@H]8O[C@H](CO)[C@@H](O)[C@H](O)[C@H]8O)[C@H]7O)[C@H](O)[C@H]6O)[C@H](O)C[C@]5(C)[C@H]4CC[C@]3(C)[C@H]1[C@@H]2C (stereo partly specified) [DIGITONIN] | Not Active | – | Not Active | – | Not Active | – | Not Active | – | Not Active | – | Not Active | – | Not Active | – | – |
| Oc1c(Cl)cc(Cl)c(Cl)c1Cc1c(O)c(Cl)cc(Cl)c1Cl [HEXACHLOROPHENE] | Not Active | – | Not Active | – | Not Active | – | Not Active | – | Not Active | – | – | – | Not Active | – | 196 |
| O=C1CN=C(c2ccccc2Cl)c2cc([N+](=O)[O-])ccc2N1 [CLONAZEPAM] | Not Active | – | Not Active | – | Not Active | – | Not Active | – | Not Active | – | Not Active | – | Not Active | – | – |
| C[C@@H](CO)NC(=O)[C@@H]1C=C2c3cccc4[nH]cc(c34)C[C@H]2N(C)C1 [ERGONOVINE] | Not Active | – | Not Active | – | Not Active | – | Not Active | – | Not Active | – | Not Active | – | Not Active | – | – |
| CCn1cc(C(=O)O)c(=O)c2cnc(N3CCCC3)nc21 [PIROMIDIC ACID] | Not Active | – | Not Active | – | Not Active | – | Not Active | – | Not Active | – | Not Active | – | Not Active | – | – |
| C[C@@H]1C[C@H]2[C@@H]3CCC4=CC(=O)C=C[C@]4(C)[C@@]3(F)[C@@H](O)C[C@]2(C)[C@H]1C(=O)CO [DESOXIMETASONE] | Not Active | – | Not Active | – | Not Active | – | Not Active | – | Not Active | – | Not Active | – | Not Active | – | – |
| CN(C)CC[C@@H](c1ccc(Cl)cc1)c1ccccn1 [DEXCHLORPHENIRAMINE] | Not Active | – | Not Active | – | Not Active | – | Not Active | – | Not Active | – | Not Active | – | Not Active | – | – |
